Measurements published in patent publication US11173151B2, “Substituted triazole derivatives and uses thereof” (BAYER AKTIENGESELLSCHAFT, priority 2017, dated 2021).

How the values were obtained:
[1] = molecular target: T1, human V2 receptor (Homo sapiens, UniProt P30518); experiment: Cellular in vitro assay for determining vasopressin receptor activity, V2 receptor cell line (CHO, CRE-luciferase); type: cell-based; conditions: CHO cell line transfected with human V2 receptor; [Arg8]-vasopressin at EC50 concentration, 3 hours; read-out: IC50 hV2
T1 construct: expressed in transfected cells; host or cells: CHO K1 (ATCC) expressing firefly luciferase under a CRE-responsive promoter

[2] = molecular target: T2, human V1a receptor (Homo sapiens, UniProt P37288); experiment: Cellular in vitro assay for determining vasopressin receptor activity, V1a receptor cell line (CHO, aequorin luminescence); type: cell-based; conditions: for IC50: CHO cell line transfected with human V1a receptor, [Arg]-vasopressin at EC50 concentration, read-out: IC50 hV1a; for ratio IC50 hV2/hV1a: selectivity ratio IC50 hV2 / IC50 hV1a
T2 construct: expressed in transfected cells; host or cells: CHO K1 (ATCC), also stably transfected with a modified aequorin
Procedure, shortened: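 IC50 from inhibition of [Arg]-vasopressin (EC50 concentration)-evoked aequorin luminescence in CHO K1 cells, with 10-min compound pretreatment.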

T1 sequence (P30518 whole entry): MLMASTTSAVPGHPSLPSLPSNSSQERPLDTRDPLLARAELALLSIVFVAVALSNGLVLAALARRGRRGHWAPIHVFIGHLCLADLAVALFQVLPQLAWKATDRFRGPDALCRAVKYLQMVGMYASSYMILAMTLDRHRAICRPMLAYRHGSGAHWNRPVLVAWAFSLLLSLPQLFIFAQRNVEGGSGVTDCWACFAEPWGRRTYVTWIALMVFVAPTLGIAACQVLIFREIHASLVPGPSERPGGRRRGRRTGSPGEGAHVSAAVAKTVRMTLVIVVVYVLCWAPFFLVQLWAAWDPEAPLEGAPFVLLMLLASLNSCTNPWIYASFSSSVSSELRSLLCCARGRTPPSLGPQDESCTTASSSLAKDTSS
T2 sequence (P37288 whole entry): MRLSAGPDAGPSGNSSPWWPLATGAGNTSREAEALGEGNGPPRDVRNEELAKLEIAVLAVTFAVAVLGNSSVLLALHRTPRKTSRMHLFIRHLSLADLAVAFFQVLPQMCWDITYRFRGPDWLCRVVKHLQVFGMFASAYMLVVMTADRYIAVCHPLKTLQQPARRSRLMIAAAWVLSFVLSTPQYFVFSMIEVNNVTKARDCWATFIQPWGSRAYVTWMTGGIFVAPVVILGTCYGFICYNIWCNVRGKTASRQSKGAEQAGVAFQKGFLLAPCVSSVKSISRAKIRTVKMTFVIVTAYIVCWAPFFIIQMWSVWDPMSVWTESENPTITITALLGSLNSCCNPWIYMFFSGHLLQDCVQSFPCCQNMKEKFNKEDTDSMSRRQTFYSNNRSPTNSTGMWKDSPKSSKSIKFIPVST

| Compound | IC50 [1] [nM] | IC50 [2] [nM] | ratio IC50 hV2/hV1a [2] |
| --- | --- | --- | --- |
| O=c1n(Cc2ncn(-c3cnccc3N3CCOCC3)n2)nc(-c2ccc(Cl)cc2)n1C[C@H](O)C(F)(F)F [Example 15, 5-(4-Chlorophenyl)-2-({1-[4-(morpholin-4-yl)pyridin-3-yl]-1H-1,2,4-triazol-3-yl}methyl)-4-[(2S)-3,3,3-trifluoro-2-hydroxypropyl]-2,4-dihydro-3H-1,2,4-triazol-3-one] | 785 | 19.3 | 40.8 |
| CC(C)(C)OC(=O)CNc1ccncc1-n1cnc(Cn2nc(-c3ccc(Cl)cc3)n(C[C@H](O)C(F)(F)F)c2=O)n1 [Example 16, Tert-butyl N-{3-[3-({3-(4-chlorophenyl)-5-oxo-4-[(2S)-3,3,3-trifluoro-2-hydroxypropyl]-4,5-dihydro-1H-1,2,4-triazol-1-yl}methyl)-1H-1,2,4-triazol-1-yl]pyridin-4-yl}glycinate] | 1550 | 79.5 | 19.5 |
| NC(=O)CNc1ccncc1-n1cnc(Cn2nc(-c3ccc(Cl)cc3)n(C[C@H](O)C(F)(F)F)c2=O)n1 [Example 17, N^2-{3-[3-({3-(4-Chlorophenyl)-5-oxo-4-[(2S)-3,3,3-trifluoro-2-hydroxypropyl]-4,5-dihydro-1H-1,2,4-triazol-1-yl}methyl)-1H-1,2,4-triazol-1-yl]pyridin-4-yl}glycinamide] | 2850 | 2250 | 1.3 |
| O=c1n(Cc2ncn(-c3cnccc3NCC3CS(=O)(=O)C3)n2)nc(-c2ccc(Cl)cc2)n1C[C@H](O)C(F)(F)F [Example 18, 5-(4-Chlorophenyl)-2-{[1-(4-{[(1,1-dioxidothietan-3-yl)methyl]amino}pyridin-3-yl)-1H-1,2,4-triazol-3-yl]methyl}-4-[(2S)-3,3,3-trifluoro-2-hydroxypropyl]-2,4-dihydro-3H-1,2,4-triazol-3-one] | 1950 | 23.7 | 82.3 |
| CC(C)(C)OC(=O)CCNc1ccncc1-n1cnc(Cn2nc(-c3ccc(Cl)cc3)n(C[C@H](O)C(F)(F)F)c2=O)n1 [Example 19, Tert-butyl N-{3-[3-({3-(4-chlorophenyl)-5-oxo-4-[(2S)-3,3,3-trifluoro-2-hydroxypropyl]-4,5-dihydro-1H-1,2,4-triazol-1-yl}methyl)-1H-1,2,4-triazol-1-yl]pyridin-4-yl}-beta-alaninate] | 2250 | 430 | 5.2 |
| O=C(O)CCNc1ccncc1-n1cnc(Cn2nc(-c3ccc(Cl)cc3)n(C[C@H](O)C(F)(F)F)c2=O)n1 [Example 20, N-{3-[3-({3-(4-Chlorophenyl)-5-oxo-4-[(2S)-3,3,3-trifluoro-2-hydroxypropyl]-4,5-dihydro-1H-1,2,4-triazol-1-yl}methyl)-1H-1,2,4-triazol-1-yl]pyridin-4-yl}-beta-alanine] | 5920 | 4350 | 1.4 |
| NC(=O)CCNc1ccncc1-n1cnc(Cn2nc(-c3ccc(Cl)cc3)n(C[C@H](O)C(F)(F)F)c2=O)n1 [Example 21, N^3-{3-[3-({3-(4-Chlorophenyl)-5-oxo-4-[(2S)-3,3,3-trifluoro-2-hydroxypropyl]-4,5-dihydro-1H-1,2,4-triazol-1-yl}methyl)-1H-1,2,4-triazol-1-yl]pyridin-4-yl}-beta-alaninamide] | 1480 | 840 | 1.8 |
| NC(=O)[C@H]1CCCN1c1ccncc1-n1cnc(Cn2nc(-c3ccc(Cl)cc3)n(C[C@H](O)C(F)(F)F)c2=O)n1 [Example 22, 1-{3-[3-({3-(4-Chlorophenyl)-5-oxo-4-[(2S)-3,3,3-trifluoro-2-hydroxypropyl]-4,5-dihydro-1H-1,2,4-triazol-1-yl}methyl)-1H-1,2,4-triazol-1-yl]pyridin-4-yl}-D-prolinamide] | 690 | 250 | 2.8 |
| NC(=O)[C@@H]1CCCN1c1ccncc1-n1cnc(Cn2nc(-c3ccc(Cl)cc3)n(C[C@H](O)C(F)(F)F)c2=O)n1 [Example 23, 1-{3-[3-({3-(4-Chlorophenyl)-5-oxo-4-[(2S)-3,3,3-trifluoro-2-hydroxypropyl]-4,5-dihydro-1H-1,2,4-triazol-1-yl}methyl)-1H-1,2,4-triazol-1-yl]pyridin-4-yl}-L-prolinamide] | 4250 | 710 | 6.0 |
| NC(=O)[C@H]1CC(F)(F)CN1c1ccncc1-n1cnc(Cn2nc(-c3ccc(Cl)cc3)n(C[C@H](O)C(F)(F)F)c2=O)n1 [Example 24, 1-{3-[3-({3-(4-Chlorophenyl)-5-oxo-4-[(2S)-3,3,3-trifluoro-2-hydroxypropyl]-4,5-dihydro-1H-1,2,4-triazol-1-yl}methyl)-1H-1,2,4-triazol-1-yl]pyridin-4-yl}-4,4-difluoro-D-prolinamide] | 4670 | 330 | 14.2 |
| NC(=O)[C@@H]1CC(F)(F)CN1c1ccncc1-n1cnc(Cn2nc(-c3ccc(Cl)cc3)n(C[C@H](O)C(F)(F)F)c2=O)n1 [Example 25, 1-{3-[3-({3-(4-Chlorophenyl)-5-oxo-4-[(2S)-3,3,3-trifluoro-2-hydroxypropyl]-4,5-dihydro-1H-1,2,4-triazol-1-yl}methyl)-1H-1,2,4-triazol-1-yl]pyridin-4-yl}-4,4-difluoro-L-prolinamide] | 4900 | 1970 | 2.5 |
| O=C(Nc1ccncc1-n1cnc(Cn2nc(-c3ccc(Cl)cc3)n(C[C@H](O)C(F)(F)F)c2=O)n1)OCC(F)(F)F [Example 26, 2,2,2-Trifluoroethyl {3-[3-({3-(4-chlorophenyl)-5-oxo-4-[(2S)-3,3,3-trifluoro-2-hydroxypropyl]-4,5-dihydro-1H-1,2,4-triazol-1-yl}methyl)-1H-1,2,4-triazol-1-yl]pyridin-4-yl}carbamate] | 323 | 58 | 5.6 |
| O=C(CC(F)(F)F)Nc1ccncc1-n1cnc(Cn2nc(-c3ccc(Cl)cc3)n(C[C@H](O)C(F)(F)F)c2=O)n1 [Example 27, N-{3-[3-({3-(4-Chlorophenyl)-5-oxo-4-[(2S)-3,3,3-trifluoro-2-hydroxypropyl]-4,5-dihydro-1H-1,2,4-triazol-1-yl}methyl)-1H-1,2,4-triazol-1-yl]pyridin-4-yl}-3,3,3-trifluoropropanamide] | 283 | 4.05 | 69.8 |
| CC(=O)Nc1ccncc1-n1cnc(Cn2nc(-c3ccc(Cl)cc3)n(C[C@H](O)C(F)(F)F)c2=O)n1 [Example 28, N-{3-[3-({3-(4-Chlorophenyl)-5-oxo-4-[(2S)-3,3,3-trifluoro-2-hydroxypropyl]-4,5-dihydro-1H-1,2,4-triazol-1-yl}methyl)-1H-1,2,4-triazol-1-yl]pyridin-4-yl}acetamide] | 395 | 11 | 35.9 |
| O=C(CC1CC1)Nc1ccncc1-n1cnc(Cn2nc(-c3ccc(Cl)cc3)n(C[C@H](O)C(F)(F)F)c2=O)n1 [Example 30, N-{3-[3-({3-(4-Chlorophenyl)-5-oxo-4-[(2S)-3,3,3-trifluoro-2-hydroxypropyl]-4,5-dihydro-1H-1,2,4-triazol-1-yl}methyl)-1H-1,2,4-triazol-1-yl]pyridin-4-yl}-2-cyclopropylacetamide] | 783 | 12.8 | 61.0 |
| O=C(Nc1ccncc1-n1cnc(Cn2nc(-c3ccc(Cl)cc3)n(C[C@H](O)C(F)(F)F)c2=O)n1)C1CC(F)(F)C1 [Example 31, N-{3-[3-({3-(4-Chlorophenyl)-5-oxo-4-[(2S)-3,3,3-trifluoro-2-hydroxypropyl]-4,5-dihydro-1H-1,2,4-triazol-1-yl}methyl)-1H-1,2,4-triazol-1-yl]pyridin-4-yl}-3,3-difluorocyclobutanecarboxamide] | 1670 | 18.3 | 90.8 |
| O=C(Nc1ccncc1-n1cnc(Cn2nc(-c3ccc(Cl)cc3)n(C[C@H](O)C(F)(F)F)c2=O)n1)C1(C(F)(F)F)CC1 [Example 32, N-{3-[3-({3-(4-Chlorophenyl)-5-oxo-4-[(2S)-3,3,3-trifluoro-2-hydroxypropyl]-4,5-dihydro-1H-1,2,4-triazol-1-yl}methyl)-1H-1,2,4-triazol-1-yl]pyridin-4-yl}-1-(trifluoromethyl)cyclopropanecarboxamide] | 753 | 5 | 150.7 |
| O=C(Nc1ccncc1-n1cnc(Cn2nc(-c3ccc(Cl)cc3)n(C[C@H](O)C(F)(F)F)c2=O)n1)[C@@H]1C[C@@H]1F [Example 34, (1S,2S)—N-{t3-[3-({3-(4-Chlorophenyl)-5-oxo-4-[(2S)-3,3,3-trifluoro-2-hydroxypropyl]-4,5-dihydro-1H-1,2,4-triazol-1-yl}methyl)-1H-1,2,4-triazol-1-yl]pyridin-4-yl}-2-fluorocyclopropanecarboxamide] | 1240 | 13.5 | 92.1 |
| O=C(Nc1cccnc1-n1cnc(Cn2nc(-c3ccc(Cl)cc3)n(C[C@H](O)C(F)(F)F)c2=O)n1)C(F)(F)F [Example 36, N-{2-[3-({3-(4-Chlorophenyl)-5-oxo-4-[(2S)-3,3,3-trifluoro-2-hydroxypropyl]-4,5-dihydro-1H-1,2,4-triazol-1-yl}methyl)-1H-1,2,4-triazol-1-yl]pyridin-3-yl}-2,2,2-trifluoroacetamide] | 232 | 67.5 | 3.4 |
| O=C(CC(F)(F)F)Nc1cccnc1-n1cnc(Cn2nc(-c3ccc(Cl)cc3)n(C[C@H](O)C(F)(F)F)c2=O)n1 [Example 37, N-{2-[3-({3-(4-Chlorophenyl)-5-oxo-4-[(2S)-3,3,3-trifluoro-2-hydroxypropyl]-4,5-dihydro-1H-1,2,4-triazol-1-yl}methyl)-1H-1,2,4-triazol-1-yl]pyridin-3-yl}-3,3,3-trifluoropropanamide] | 578 | 7.5 | 77.0 |
